Source: patent US5169944A, “Methods and compositions for the enteral administration of hepatobiliary MRI contrast agents” (Board of Regents of the University of Washington, priority 1991, dated 1992)
Entries after “also recorded” stand apart in the source; their conditions may differ.

Experiments:
[1] = Deaths following the imaging experiment; assay type: in vivo, Sprague-Dawley rats; conditions: 5 rats per agent, i.v.; unclear whether due to contrast media or anesthesia
Procedure: Pyrogenic liver abscesses were induced in Sprague-Dawley rats following the method of Weinsten, WM, 1975. Twelve female sprague-Dawley rats (250-300 g each) underwent midline laparotomy following intraperitoneal anesthesia with sodium pentobarbital (40-50 mg/kg), and a filtered bacterial inoculum of colonic contents was directly injected into the liver of each rat. Two animals died within 24 hours following surgery and were excluded from the study. The remaining 10 rats underwent MR imaging 4-6 days after surgery, as described below.
These studies were done at an estimated 1/10 of the LD50 of protoporphyrin (Jackson et al, 1985).

subcutaneous abscesses = experiment: MRI enhancement in liver abscess rats: subcutaneous abscesses; assay type: in vivo, Sprague-Dawley rats; conditions: for enhancement of subcutaneous abscesses (in words): i.v.
normal liver parenchyma [2] = experiment: MRI enhancement in normal and liver abscess rats: normal liver parenchyma; assay type: in vivo, Sprague-Dawley rats
liver abscess = experiment: MRI enhancement in liver abscess rats: liver abscess; assay type: in vivo, Sprague-Dawley rats
[3] = tested on: normal subcutaneous tissue; experiment: MRI enhancement in liver abscess rats: normal subcutaneous tissue; assay type: in vivo, Sprague-Dawley rats; conditions: for enhancement of normal subcutis (in words): i.v.
[4] = tested on: liver metastases (mammary adenocarcinoma R3230 AC); experiment: MRI enhancement in rats with liver metastases: tumor; assay type: in vivo, Fischer 344 female rats; conditions: for visualization of tumor deposits: i.v.
Procedure: The entire procedure was performed under sterile conditions. Four animals died within 48 hours following surgery.

[5] = rat, in vivo
liver = conditions: cited from earlier work; for contrast enhancement: subsequent limited imaging experiments
normal liver parenchyma [6] = tested on: normal liver parenchyma
Procedure: Imaging experiments were performed with a General Electric CSI-II 2.0 T (85.6 Mhz proton resonant frequency) chemical shift imaging spectrometer (GE Medical Systems, Fremont, Calif.). The proton imaging sequence used was that of a standard pin echo 2DFT sequence that employed a single 3 mm slice thickness with four phase cycled signal acquisitions. […] Coronal images were obtained of the rats+ abdomen and thorax using a TR of 160 msec and a TE of 16 msec. A specially designed 53 mm outer diameter (130 mm long) imaging coil of the low-pass birdcage resonantor design was employed with a balanced-matched tuning network for all images. […]
Signal intensity was measured by region-of-interest (ROI) analysis both for normal liver parenchyma, liver lesions and a corn oil standard. […] Signal intensity was measured over the center of the hepatic abscesses. Signal intensities were also determined for normal subcutaneous tissue in the area of the thoracic wall and for subcutaneous abscesses located in the anterior abdominal wall in rats with liver abscesses. Measured signal intensities (SI) were normalized to the intensity of the corn oil standard for all pre- and postcontrast images. Signal intensity enhancement was calculated according to the formula: (SI postcontrast-SI precontrast)/SI precontrast. […]

gall bladder = conditions: i.v. 0.04 mmol/kg, 30 minutes
normal liver tissue [7] = conditions: i.v. 0.04 mmol/kg, 30 minutes
Vx-2 tumor = experiment: MRI signal enhancement, Vx-2 carcinoma model: tumor; assay type: in vivo, New Zealand White (NZW) rabbits; conditions: i.v. 0.04 mmol/kg, 30 minutes
normal liver tissue [8] = conditions: gastric lavage, 0.05 mmol/kg Mn mesoporphyrin + […] mixed micelles, 4 hours
[9] = in vitro
[10] = solubility and stability in hydrophilic and lipophilic solvents
[11] = early work; cited from earlier work

Compound: O=S(=O)([O-])c1ccc(-c2c3nc(c(-c4ccc(S(=O)(=O)[O-])cc4)c4ccc([nH]4)c(-c4ccc(S(=O)(=O)[O-])cc4)c4nc(c(-c5ccc(S(=O)(=O)[O-])cc5)c5ccc2[nH]5)C=C4)C=C3)cc1.[Mn+4] [Mn TPPS4, manganese tetrakis-(4-sulfonatophenyl)porphyrin, reference compound]
- death following the imaging experiment [1]: One rat
- enhancement of subcutaneous abscesses (in words) (subcutaneous abscesses): enhanced both subcutis and subcutaneous abscesses
- enhancement of subcutaneous abscesses (subcutaneous abscesses; i.v. Mn TPPS4, 60 minutes, p greater than 0.05): 88%
- enhancement of normal liver parenchyma (normal liver parenchyma [2]; i.v. Mn TPPS4, 10 minutes post injection, p greater than 0.05): 43%
- contrast between normal and diseased tissue (liver abscess; i.v.): enhanced both normal liver and abscesses, thus providing no improved contrast between normal and diseased tissue
- enhancement of liver abscess (liver abscess; i.v. Mn TPPS4, 10 minutes post injection, p less than 0.05): 63%
- enhancement of normal subcutis (in words) [3]: enhanced both subcutis and subcutaneous abscesses
- enhancement of normal subcutaneous tissue ([3]; i.v. Mn TPPS4, 60 minutes, p less than 0.05): 56%
- visualization of tumor deposits [4]: failed to help in distinguishing the site of the tumor deposits
- enhancement of liver and tumor / lesion discrimination ([4]; i.v. Mn-TPPS4): enhanced both liver and tumor thus providing no discrimination of the lesion
- skin discoloration [5]: green discoloration of the skin

Compound: manganese uroporphyrin
- contrast enhancement (liver): produced dramatic contrast effects in the kidneys and urine

Compound: O=C([O-])CN(CCN(CC(=O)[O-])CC(=O)[O-])CCN(CC(=O)[O-])C(COCc1ccccc1)C(=O)[O-].[Gd+3] (stereo not drawn) [Gd-BOPTA]
- hepatic excretion and bile duct opacification (liver; in vivo): undergoes hepatic excretion and opacifies the bile ducts

Compound: C=CC1=C(C)c2cc3[n-]c(cc4[n-]c(cc5nc(cc1n2)C(C)=C5C=C)c(C)c4CCC(=O)[O-])c(CCC(=O)[O-])c3C.[H+].[H+].[Mn+2] [manganese protoporphyrin]
- contrast enhancement (liver): caused hepatic and biliary contrast enhancement

Compound: manganese (III) mesoporphyrin [Mn mesoporphyrin]
- increase of signal intensity of normal liver parenchyma over baseline (normal liver parenchyma [6]; 24 and 48 hrs, n=3 rats, may be artificially high): 30%
- maximum enhancement of normal liver parenchyma (normal liver parenchyma [6]; i.v. 0.035 mmol/kg, over 60 min): 70%
- death following the imaging experiment [1]: one
- enhancement of the gall bladder (MRI signal intensity) (gall bladder): 373+/-92.3%
- enhancement of the liver (MRI signal intensity) (normal liver tissue [7]): 89.6+/-17.5%
- tumor-to-liver contrast (liver metastases; gastric, 0.05 mmol/kg + […] mixed micelles, single observation vs control animal): significant increase of the tumor-to-liver contrast
- enhancement properties, oral vs intravenous (liver metastases; tumor-to-liver contrast, oral administration): substantially equivalent to the properties established for intravenous administration
- enhancement of the tumor tissue (MRI signal intensity) (Vx-2 tumor): 12.7+/-12.1%
- statistical significance of tumor enhancement (Vx-2 tumor): not statistically significant
- enhancement of normal liver tissue over baseline (normal liver tissue [8]): 65%
- enhancement of subcutaneous abscesses (in words) (subcutaneous abscesses): did not yield enhancement; also recorded: did not enhance either subcutis or subcutaneous abscesses
- liver enhancement (normal liver parenchyma [2]; i.v. 0.035-0.045 mmol/kg, 10 minutes, p less than 0.01): 43%
- prolonged enhancement of normal liver parenchyma (normal liver parenchyma [2]; i.v., over the observation period of 60 min, significant): 30-50%
- binding by cholestyramine [9]: cholestyramine binds Mn mesoporphyrin
- enhancement of liver abscesses (in words) (liver abscess; i.v., any time): not enhanced at any time
- solubility in K2PO4 / water-based buffer [10]: improved solubility in high pH solutions
- contrast enhancement of normal hepatic tissue (liver; T1 weighted MRI, non-toxic doses): contrast enhancement of normal hepatic tissue leading to improved diagnostic visualization of tumors and abscesses
- enhancement of normal subcutis (in words) [3]: did not yield enhancement; also recorded: did not enhance either subcutis or subcutaneous abscesses
- delayed tumor enhancement ([4]; 24 and 48 hrs, n=3 rats): no delayed tumor enhancement was observed
- visualization of tumor deposits [4]: made visualization of tumor deposits extremely simple
- effect on signal intensity of metastases ([4]; i.v. 0.035 mmol/kg, center and periphery of tumors, over 60 min, n=6 rats): did not significantly affect the signal intensity of metastases

Compound: CNC[C@H](O)[C@@H](O)[C@H](O)[C@H](O)CO.CNC[C@H](O)[C@@H](O)[C@H](O)[C@H](O)CO.O=C([O-])CN(CCN(CC(=O)[O-])CC(=O)O)CCN(CC(=O)[O-])CC(=O)O.[Gd+3] [Gd-DTPA, gadopentetate dimeglumine]
- contrast enhancement of normal liver and focal liver lesions (liver; intravenous): nonselectively enhances either normal liver, focal liver lesions or both

Compound: C=CC1=C(C)c2cc3[nH]c(cc4nc(cc5[nH]c(cc1n2)c(C)c5CCC(=O)O)C(CCC(=O)O)=C4C)c(C)c3C=C [protoporphyrin]
- solubility [11]: poor solubility
- toxicity [11]: apparent high toxicity
- T1 effects in the liver (liver; early work): tissue specific T1(inversion time) effects were clearly demonstrated in the liver
